The values that follow come from PMC3630091, “A Mechanistic Paradigm for Broad-Spectrum Antivirals that Target Virus-Cell Fusion” (PLoS Pathogens, 2013).

For series [1] the following is noted: reference sensitizer value; cited from earlier work.
In series [2] the test system is HIV. In words: microbe, parasite or virus in culture. The format is cell-based. To be noted: Human immunodeficiency virus 1, 10 min, read-out: IC50 ± SD (nM) (N=x) HIV.
The subject of series [3] is NDV. In words: microbe, parasite or virus in culture. Particulars: read-out: IC50 ± SD (nM) (N=x) NDV. The format is cell-based, Newcastle disease virus.
Series [4] relates to HSV. In words: microbe, parasite or virus in culture. The class given is cell-based, Herpes simplex virus-1. Particulars: Human alphaherpesvirus 1, 10 min, read-out: IC50 ± SD (nM) (N=x) HSV.
Series [5] is described as follows: Absorbance spectra / UV-visible spectra integration. The class given is physicochemical. Particulars: for Abs Max (λmax): 100 µM in DMSO; for AUC (400-750 nm): integrated absorption divided by concentration, normalized relative to LJ001 (LJ001 = 100); for total integrated absorption (AUC), times that of LJ001: λ = 400 to 750 nm.
Series [6] in a line: Singlet oxygen quantum yield measurements. The class given is physicochemical. To be noted: for 1O2 QY 355 nm: in CD2Cl2, excitation 355 nm; for 1O2 QY 355 nm / 1O2 QY 532 nm: error is one standard deviation; for 1O2 QY 532 nm: in CD2Cl2, excitation 532 nm.
A short description of series [7]: Singlet oxygen quenching measurements. The format is physicochemical. Particulars: 355 nm with C60 as external sensitizer; error is one standard deviation.
The test system of series [8] is HIV-1JR-CSF. The format is cell-based.
Series [9] deals with RVFV ZH501. The class given is in vivo, Balb/c mice. To be noted: for time-to-death / survival compared to untreated controls: 20 pfu RVFV ZH501 IP, IP once a day for 7 days from 1 h post-challenge, JL118 1.25 mg/kg, JL122 and JL103 10 mg/kg.
Series [10] in a line: Clinical observations after single dose in PK study. The class given is in vivo, female Balb/c mice. To be noted: single dose 2.5 mg/kg ip, about 15 min post administration. The procedure: Dose administration. […] These mice were replaced and the dose level was reduced to 5 mg/kg. […] Hypoactivity was the only clinical observation noted in some of the mice treated with the 3 test articles at 10 and 100 mg/kg po. […] These animals were replaced and administered with the lower ip dose level of 1.25 mg/kg and underwent blood collections. Mice received single ip doses of 1.25 mg/kg (JL109 and JL118) or 5 mg/kg (JL122) and po doses of 10 mg/kg (JL109, JL118, JL122), 50 mg/kg (JL109, JL118), or 100 mg/kg (JL109, JL118, JL122).

The test system of series [11] is enveloped viruses. The format is cell-based.
Series [12] in a line: in vitro. To be noted: human.
Series [13] can be described thus: Pharmacokinetics in mice. Particulars: for MRT last / Tmax / AUC(0-t) / Cmax: female, Balb/c, mouse, in vivo; for improvements in relevant pharmacokinetic (PK) parameters compared to LJ001: half-life, AUC, bioavailability, clearance.
Series [14] in a line: Membrane partition into POPC LUV (fluorescence). Particulars: for IL / Iw: POPC LUV, fluorescence intensity ratio from curve fitting.
Series [15] can be described thus: Membrane partition into HIV membrane-like mixture LUV (fluorescence). To be noted: for IL / Iw: HIV-like mixture LUV, fluorescence intensity ratio from curve fitting.
The test system of series [16] is HIV-1JRCSF.
Series [17] is described as follows: Acrylamide quenching in POPC vesicles. The class given is physicochemical. To be noted: >50-fold molar excess of lipid; 3 mM POPC vesicles.

Read-outs that look alike come from different tables or passages of the source. Where only a bound is given, the exact number is not on record here.

Regarding `C1=Cc2nc1c(-c1ccccc1)c1ccc([nH]1)c(-c1ccccc1)c1nc(c(-c3ccccc3)c3ccc([nH]3)c2-c2ccccc2)C=C1` [TPP], the “1O2 QY of reference compound at 532 nm” value in [1] is listed as 0.62.

For orientation: IC50 means the midpoint of a concentration-inhibition curve. By MRT last is commonly meant the average time that molecules of a dose stay in the body. As usually defined, the Tmax is the time from dosing to the highest level. As a reminder, the AUC(0-t) is the area under the concentration-time curve up to a stated or last time point. Regarding `CCN1C(=S)O/C(=C\c2ccc(-c3ccc(N(C)C)cc3)o2)C1=S` [JL118, (Z)-5-((5-(4-(dimethylamino)phenyl)furan-2-yl)methylene)-3-ethyloxazolidine-2,4-dithione], in series [2], the IC50 was found to be 11.7 ± 5.5 nM. In series [3] (avian paramyxovirus 1, 10 min), the IC50 was 2.1 ± 1.4 nM. Besides, in series [4], the IC50 stood at 10.1 ± 8.6 nM. Besides, in series [5], the “Abs Max (λmax)” value amounted to 610 nm; the “AUC (400-750 nm)” value is listed as 200; the “total integrated absorption (AUC), times that of LJ001” value is 2 times. Also, in [6], the “1O2 QY 355 nm” value is recorded as 0.14 ± 0.01 and the “1O2 QY 532 nm” value turned out to be 0.15 ± 0.02. Besides, the “kT × 10-7” value in series [7] was 4.600 ± 0.300 M-1s-1. In addition, the “antiviral potency at physiological hematocrits” value in series [8] was “maintained their antiviral potency”. In addition, the “time-to-death / survival compared to untreated controls” value in series [9] is reported as “moderate but significant delay in time-to-death”. Further, in [10], the clinical observations entry is listed as “deaths occurred in the initial 3 animals”. In addition, the “improved in vitro potency compared to LJ001” value in [11] was 10-100 fold. Further, the CC50 in series [12] was 37.1 µM. Moreover, in [13], the MRT last is 5.3 to 11.4 h, the Tmax was 0.25 to 1 h and the “improvements in relevant pharmacokinetic (PK) parameters compared to LJ001” value is above 10 fold. This compound also returned an AUC(0-t) in [13] (po, 10 mg/kg) of 1350 ng·h/mL. This compound displayed an AUC(0-t) in series [13] (po, 50 mg/kg) of 841 ng·h/mL. This compound came in with an AUC(0-t) in [13] (po, 100 mg/kg) of 1160 ng·h/mL. Besides, in [14], the Kp at 10 min, 50 µM was determined as 2700 and the “IL / Iw” value is given as 233. In [15], the Kp at 10 min, 50 µM was 2010 and the “IL / Iw” value was determined as 488.

For orientation: Cmax means the highest concentration seen after dosing. Turning to `CCN1C(=S)O/C(=C\c2ccc(-c3ccc(OC)cc3OC)o2)C1=S` [JL109, (Z)-5-((5-(2,4-dimethoxyphenyl)furan-2-yl)methylene)-3-ethyloxazolidine-2,4-dithione], the IC50 in series [2] came out at 4.5 ± 4.8 nM; in series [3] (avian paramyxovirus 1, 10 min) it was 3.8 ± 3.9 nM; in series [4] it was 0.7 nM. Besides, the “Abs Max (λmax)” value in series [5] was found to be 550 nm. The “AUC (400-750 nm)” value in series [5] was found to be 178. Also, the “1O2 QY 355 nm” value in series [6] is 0.37 ± 0.02. In [6], the “1O2 QY 532 nm” value amounted to 0.38 ± 0.02. Besides, the “kT × 10-7” value in series [7] is on record as 2.000 ± 0.100 M-1s-1. Besides, in series [10], the clinical observations result was “deaths occurred in the initial 3 animals”. Further, in series [12], the CC50 was 8.51 µM. For the same compound, in [13], the MRT last is 4.5 to 10 h. In addition, the Tmax in series [13] lay within 0.25 to 1 h. The AUC(0-t) in series [13] (po, 10 mg/kg) came out at 354 ng·h/mL; in series [13] (po, 50 mg/kg) it was 595 ng·h/mL; in series [13] (po, 100 mg/kg), 538 ng·h/mL. Besides, the Cmax came out at 88.2 ng/mL in series [13] (po, 10 mg/kg, po 10 mg/kg); 127 ng/mL in series [13] (po, 50 mg/kg, po 50 mg/kg); 78.2 ng/mL in [13] (po, 100 mg/kg, po 100 mg/kg).

As to `CCN1C(=O)/C(=C/c2ccc(-c3ccccc3)o2)OC1=S` [JL101], the IC50 in [3] was 8800 nM.

Take `CCN1C(=S)O/C(=C\c2ccc(-c3c(OC)cc(OC)cc3OC)o2)C1=S` [JL122, (Z)-3-ethyl-5-((5-(2,4,6-trimethoxyphenyl)furan-2-yl)methylene)oxazolidine-2,4-dithione]: the IC50 in [2] turned out to be 64 ± 41.5 nM; in series [3] (avian paramyxovirus 1, 10 min), 0.9 ± 0.8 nM; in series [4] it was 2.4 ± 1.4 nM. Further, in series [5], the “Abs Max (λmax)” value is on record as 545 nm. The “AUC (400-750 nm)” value in [5] was found to be 153. Further, the “total integrated absorption (AUC), times that of LJ001” value in [5] came out at 1.53 times. Further, the “QY at 355 nm, times higher than LJ001” value in series [6] (355 nm) was “about 2 times”. In addition, the “1O2 QY 355 nm” value in [6] was 0.43 ± 0.04. The “1O2 QY 532 nm” value in series [6] came to 0.23 ± 0.02. Besides, the “kT × 10-7” value in [7] is recorded as 1.970 ± 0.050 M-1s-1. The “antiviral potency at physiological hematocrits” value in series [8] is recorded as “maintained their antiviral potency”. Further, the “time-to-death / survival compared to untreated controls” value in series [9] is given as “moderate but significant delay in time-to-death”. Besides, the Median survival in series [9] (50 pfu RVFV ZH501 IP, 10 mg/kg IP at 1, 12, 24 and 48 h post-challenge, n = 5) is 6 days. In series [11], the “improved in vitro potency compared to LJ001” value is 10-100 fold. The compound also displayed a CC50 in series [12] of 10.3 µM. In series [13], this compound registered an MRT last of 4.7 to 7 h. The Tmax in [13] was in the range of 0.25 to 1 h. Moreover, the AUC(0-t) amounted to 569 ng·h/mL in [13] (ip, 5 mg/kg); 924 ng·h/mL in series [13] (ip, 10 mg/kg); 232 ng·h/mL in series [13] (po, 10 mg/kg); 1270 ng·h/mL in [13] (po, 100 mg/kg). Besides, the Cmax turned out to be 122 ng/mL in series [13] (ip, 5 mg/kg, ip 5 mg/kg); 132 ng/mL in series [13] (ip, 10 mg/kg, ip 10 mg/kg); 122 ng/mL in series [13] (po, 50 mg/kg, po 50 mg/kg). For the same compound, the “improvements in relevant pharmacokinetic (PK) parameters compared to LJ001” value in [13] is reported as above 10 fold. In addition, the Kp at 10 min, 50 µM was determined as 1130 in series [14] and 267 in series [15]. Also, the entries for the “IL / Iw” value in [14] and in series [15] were 143.8 and 613.7, respectively.

On to `Cc1cn([C@H]2C[C@H](N=[N+]=[N-])[C@@H](CO)O2)c(=O)[nH]c1=O` [AZT], for which, in series [16], the “t1/2 (inhibition half-life, time-of-addition)” value was above 8.33 h.

On to `O=C1OC2(c3cc(I)c(O)c(I)c3Oc3c2cc(I)c(O)c3I)c2c(Cl)c(Cl)c(Cl)c(Cl)c21` [RB, Rose Bengal], for which, in series [1], the “1O2 QY of reference compound at 532 nm” value is 0.79.

What is called melting point is the temperature of the solid-liquid transition. Take `C=CCN1C(=O)S/C(=C\c2ccc(-c3ccccc3)o2)C1=O` [LJ025, (Z)-3-allyl-5-((5-phenylfuran-2-yl)methylene)thiazolidine-2,4-dione]: the melting point was 149 to 151 °C. In addition, the “fraction protected from the water-soluble quencher (acrylamide)” value in series [17] is “over 85%”. Besides, in series [5], the “Abs Max (λmax)” value amounted to 405 nm and the “AUC (400-750 nm)” value is below 100. For the same compound, the “1O2 QY 355 nm” value in series [6] is 0. In addition, the “kT × 10-7” value in series [7] was 0.191 ± 0.010 M-1s-1. Besides, in [12], the CC50 was above 50 µM. Also, the “IL / Iw” value in series [14] amounted to 2.79. Further, the “IL / Iw” value in series [15] was determined as 3.60.
